{
  "source": "patent US8309319B2",
  "about": "“Fluorescent probe for measurement of UDP-glucuronosyltransferase” (The University of Tokyo, priority 2007, dated 2012)",
  "key": {"UGT1A1 [1]": {"target": "T1, UGT1A1 (Homo sapiens, UniProt P22309)", "T1 sequence (P22309 26-533)": "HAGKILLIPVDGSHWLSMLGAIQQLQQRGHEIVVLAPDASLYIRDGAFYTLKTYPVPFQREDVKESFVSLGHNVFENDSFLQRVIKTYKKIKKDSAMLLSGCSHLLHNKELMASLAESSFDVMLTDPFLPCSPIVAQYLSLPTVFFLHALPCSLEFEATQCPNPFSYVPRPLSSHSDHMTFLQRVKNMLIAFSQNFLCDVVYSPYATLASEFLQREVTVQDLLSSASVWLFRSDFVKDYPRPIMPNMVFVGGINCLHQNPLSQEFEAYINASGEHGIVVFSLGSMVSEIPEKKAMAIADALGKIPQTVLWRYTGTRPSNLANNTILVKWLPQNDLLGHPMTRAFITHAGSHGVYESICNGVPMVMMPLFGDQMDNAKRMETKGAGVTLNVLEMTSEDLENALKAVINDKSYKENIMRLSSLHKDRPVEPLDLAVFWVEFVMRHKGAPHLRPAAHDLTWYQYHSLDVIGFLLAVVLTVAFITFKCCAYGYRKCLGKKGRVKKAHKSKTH", "assay": "Reactivity of fluorescence increasing (d-PeT) type probes with UGT1A1", "format": "biochemical", "parameters": "host or cells: microsomes expressing UGT1A1", "conditions": "FIG. 4", "procedure": "The fluorescein derivatives of fluorescence decreasing type, of which fluorescence is decreased by a reaction with UGT, were obtained in Examples 1 and 2. Further researches were conducted in order to provide fluorescein derivatives of fluorescence increasing type of which fluorescence is increased by a reaction with UGT. Functionally, the structure of fluorescein can be recognized as two parts having different functions, i.e. the benzene ring moiety and the xanthene ring moiety. By appropriately choosing substituents on the benzene ring moiety among them, fluorescence thereof can be controlled by using PeT (J. Am. Chem. Soc., 123, pp. 2530-2536, 2001). […] Therefore, it is considered that there can be developed a fluorescence increasing type fluorescein derivative of which fluorescence is quenched by PeT before the reaction with UGT when the fluorescein derivative is a phenolate type, and fluorescence is emitted after the reaction with UGT when the fluorescein derivative is an O-glycoside type, by appropriately choosing the substituents on the benzene ring moiety (J. Am. Chem. Soc., 126, pp. 14079-14085, 2004). From such a point of view, 6-carboxyfluorescein dimethyl ester and 5,6-dicarboxyfluorescein trimethyl ester were designed as fluorescence increasing (d-PeT) type fluorescein derivatives, and reactivity thereof with UGT1A1 was confirmed."}, "UGT1A1 [2]": {"target": "T1, UGT1A1", "assay": "Reactivity with UGT1A1, fluorescence method (decrease in fluorescence intensity)", "conditions": "37° C."}, "UGT1A1 [3]": {"target": "T1, UGT1A1", "assay": "Reactivity with UGT1A1, absorbance method (decrease of absorbance)", "format": "biochemical", "parameters": "host or cells: microsomes expressing UGT1A1", "conditions": "probe 10 μM, absorbance at 480 to 510 nm; compared with 2-Me-4-OMe-TG"}, "[4]": {"conditions": "probe 1 μM, excitation 480 to 510 nm"}},
  "data": [
    {"smiles": "COC(=O)c1cc(C(=O)OC)c(-c2c3ccc(=O)cc-3oc3cc(O)ccc23)cc1C(=O)OC", "note": "[5,6-dicarboxyfluorescein trimethyl ester]", "values": [
      {"measurement": "change of fluorescence intensity with passage of the reaction time", "setting": "UGT1A1 [1]", "value": "increase of fluorescence intensity was observed"}
    ]},
    {"smiles": "COC(=O)c1ccc(C(=O)OC)c(-c2c3ccc(=O)cc-3oc3cc(O)ccc23)c1", "note": "[6-carboxyfluorescein dimethyl ester]", "values": [
      {"measurement": "change of fluorescence intensity with passage of the reaction time", "setting": "UGT1A1 [1]", "value": "increase of fluorescence intensity was observed"}
    ]},
    {"smiles": "Nc1ccccc1-c1c2ccc(=O)cc-2oc2cc(O)ccc12", "note": "[Derivative 6]", "values": [
      {"measurement": "reactivity with UGT1A1", "setting": "UGT1A1 [2]; UGT1A1 microsomes 0.1 mg/mL, UDP-glucuronic acid 2 mM, probe 1 μM (fluorescence) or 10 μM (absorbance)", "value": "weak"}
    ]},
    {"smiles": "COc1ccc(-c2c3ccc(=O)cc-3oc3cc(O)ccc23)c(C)c1", "note": "[Derivative 11]", "values": [
      {"measurement": "decrease of fluorescence intensity to", "setting": "UGT1A1 [2]; [4]", "value": "≤ 0.1", "unit": "%"},
      {"measurement": "decrease rate of fluorescence", "setting": "UGT1A1 [2]; [4]", "value": "high decrease rate of fluorescence"}
    ]},
    {"smiles": "Cc1ccc(-c2c3ccc(=O)cc-3oc3cc(O)ccc23)c([N+](=O)[O-])c1", "note": "[Derivative 15]", "values": [
      {"measurement": "decrease rate of absorbance", "setting": "UGT1A1 [3]", "value": "higher decrease rate of absorbance"}
    ]}
  ]
}
